From PubChem BioAssay (NCI)
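How tested: cells in 96-well plates exposed to compound for 48 hours at five concentrations. TGI denotes the concentration required for complete inhibition of growth.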

system: SNB-78 CNS; assay: growth of human tumour cells (NCI), 48 h

Structure (SMILES)	TGI
CCOC(=O)C1=C(OC(OCC)C(CC)[Se]c2ccccc2)CCC1 (centres undefined)	97.4 µM
CCCc1cc(OC(=O)c2c(O)cc(OC)cc2CCC)cc(O)c1C(=O)O	64.1 µM
Cc1ccc(-c2cc(-c3ccccc3)c(C#N)c(=O)[nH]2)cc1	> 100 µM
O=[N+]([O-])c1cccc(Nc2nc(Cl)nc(Cl)n2)c1	> 100 µM
COC(=O)/C=C(\C)CCC1SC1(C)C (centres undefined)	> 100 µM
Cc1ccc(C(=O)Oc2ccccc2)cc1N=NN(C)C	> 100 µM
CCOC(=O)CCC(NC(=O)c1ccc(NC(OC)c2nc3cc(C(F)(F)F)ccc3nc2-c2ccccc2)cc1)C(=O)OCC (centres undefined)	37.3 µM
CCCCOC/N=C(/N)NC#N	> 100 µM

system: M19-MEL melanoma; assay: growth of human tumour cells (NCI), 48 h

Structure (SMILES)	TGI
CCOC(=O)C1=C(OC(OCC)C(CC)[Se]c2ccccc2)CCC1 (centres undefined)	30.8 µM
CCCc1cc(OC(=O)c2c(O)cc(OC)cc2CCC)cc(O)c1C(=O)O	> 100 µM
Cc1ccc(-c2cc(-c3ccccc3)c(C#N)c(=O)[nH]2)cc1	> 100 µM
O=[N+]([O-])c1cccc(Nc2nc(Cl)nc(Cl)n2)c1	> 100 µM
COC(=O)/C=C(\C)CCC1SC1(C)C (centres undefined)	> 100 µM
C=C1C2=C(CCCC2)C(=O)OC12CCCCC2	> 100 µM
Cc1ccc(C(=O)Oc2ccccc2)cc1N=NN(C)C	> 100 µM
CCOC(=O)CCC(NC(=O)c1ccc(NC(OC)c2nc3cc(C(F)(F)F)ccc3nc2-c2ccccc2)cc1)C(=O)OCC (centres undefined)	29.2 µM
COc1ccc2[nH]c3c(c2c1)[C@H]1CCC(C(C)(C)C)C[C@H]1[C@H]1C(=O)N(c2ccccc2)C(=O)[C@@H]31 (some centres undefined)	> 94.2 µM

system: DMS 114 small cell lung; assay: growth of human tumour cells (NCI), 48 h

Structure (SMILES)	TGI
CCOC(=O)C1=C(OC(OCC)C(CC)[Se]c2ccccc2)CCC1 (centres undefined)	15.6 µM
CCCc1cc(OC(=O)c2c(O)cc(OC)cc2CCC)cc(O)c1C(=O)O	56 µM
Cc1ccc(-c2cc(-c3ccccc3)c(C#N)c(=O)[nH]2)cc1	> 100 µM
COC(=O)/C=C(\C)CCC1SC1(C)C (centres undefined)	> 100 µM
C=C1C2=C(CCCC2)C(=O)OC12CCCCC2	> 100 µM
CCOC(=O)CCC(NC(=O)c1ccc(NC(OC)c2nc3cc(C(F)(F)F)ccc3nc2-c2ccccc2)cc1)C(=O)OCC (centres undefined)	30.7 µM
CCCCOC/N=C(/N)NC#N	> 100 µM
COc1ccc2[nH]c3c(c2c1)[C@H]1CCC(C(C)(C)C)C[C@H]1[C@H]1C(=O)N(c2ccccc2)C(=O)[C@@H]31 (some centres undefined)	> 76.7 µM

system: DMS 273 small cell lung; assay: growth of human tumour cells (NCI), 48 h

Structure (SMILES)	TGI
CCOC(=O)C1=C(OC(OCC)C(CC)[Se]c2ccccc2)CCC1 (centres undefined)	29.2 µM
CCCc1cc(OC(=O)c2c(O)cc(OC)cc2CCC)cc(O)c1C(=O)O	95.7 µM
Cc1ccc(-c2cc(-c3ccccc3)c(C#N)c(=O)[nH]2)cc1	> 100 µM
O=[N+]([O-])c1cccc(Nc2nc(Cl)nc(Cl)n2)c1	> 100 µM
COC(=O)/C=C(\C)CCC1SC1(C)C (centres undefined)	> 100 µM
C=C1C2=C(CCCC2)C(=O)OC12CCCCC2	> 100 µM
Cc1ccc(C(=O)Oc2ccccc2)cc1N=NN(C)C	> 100 µM
CCOC(=O)CCC(NC(=O)c1ccc(NC(OC)c2nc3cc(C(F)(F)F)ccc3nc2-c2ccccc2)cc1)C(=O)OCC (centres undefined)	21 µM
CCCCOC/N=C(/N)NC#N	> 100 µM
COc1ccc2[nH]c3c(c2c1)[C@H]1CCC(C(C)(C)C)C[C@H]1[C@H]1C(=O)N(c2ccccc2)C(=O)[C@@H]31 (some centres undefined)	> 100 µM

system: KM20L2 colon; assay: growth of human tumour cells (NCI), 48 h

Structure (SMILES)	TGI
CCOC(=O)C1=C(OC(OCC)C(CC)[Se]c2ccccc2)CCC1 (centres undefined)	> 100 µM
CCCc1cc(OC(=O)c2c(O)cc(OC)cc2CCC)cc(O)c1C(=O)O	> 100 µM
Cc1ccc(-c2cc(-c3ccccc3)c(C#N)c(=O)[nH]2)cc1	> 100 µM
O=[N+]([O-])c1cccc(Nc2nc(Cl)nc(Cl)n2)c1	> 100 µM
COC(=O)/C=C(\C)CCC1SC1(C)C (centres undefined)	> 100 µM
C=C1C2=C(CCCC2)C(=O)OC12CCCCC2	> 100 µM
Cc1ccc(C(=O)Oc2ccccc2)cc1N=NN(C)C	> 100 µM
CCOC(=O)CCC(NC(=O)c1ccc(NC(OC)c2nc3cc(C(F)(F)F)ccc3nc2-c2ccccc2)cc1)C(=O)OCC (centres undefined)	27.2 µM
CCCCOC/N=C(/N)NC#N	> 100 µM
COc1ccc2[nH]c3c(c2c1)[C@H]1CCC(C(C)(C)C)C[C@H]1[C@H]1C(=O)N(c2ccccc2)C(=O)[C@@H]31 (some centres undefined)	> 100 µM

system: XF 498 CNS; assay: growth of human tumour cells (NCI), 48 h

Structure (SMILES)	TGI
CCOC(=O)C1=C(OC(OCC)C(CC)[Se]c2ccccc2)CCC1 (centres undefined)	46.8 µM
CCCc1cc(OC(=O)c2c(O)cc(OC)cc2CCC)cc(O)c1C(=O)O	74.4 µM
O=[N+]([O-])c1cccc(Nc2nc(Cl)nc(Cl)n2)c1	> 100 µM
COC(=O)/C=C(\C)CCC1SC1(C)C (centres undefined)	> 100 µM
C=C1C2=C(CCCC2)C(=O)OC12CCCCC2	> 100 µM
CCCCOC/N=C(/N)NC#N	> 100 µM
COc1ccc2[nH]c3c(c2c1)[C@H]1CCC(C(C)(C)C)C[C@H]1[C@H]1C(=O)N(c2ccccc2)C(=O)[C@@H]31 (some centres undefined)	31 µM

system: HOP-18 NSCLC; assay: growth of human tumour cells (NCI), 48 h

Structure (SMILES)	TGI
CCOC(=O)C1=C(OC(OCC)C(CC)[Se]c2ccccc2)CCC1 (centres undefined)	69.5 µM
Cc1ccc(-c2cc(-c3ccccc3)c(C#N)c(=O)[nH]2)cc1	> 100 µM
COC(=O)/C=C(\C)CCC1SC1(C)C (centres undefined)	> 100 µM
C=C1C2=C(CCCC2)C(=O)OC12CCCCC2	> 100 µM
CCOC(=O)CCC(NC(=O)c1ccc(NC(OC)c2nc3cc(C(F)(F)F)ccc3nc2-c2ccccc2)cc1)C(=O)OCC (centres undefined)	44.5 µM
CCCCOC/N=C(/N)NC#N	> 100 µM
COc1ccc2[nH]c3c(c2c1)[C@H]1CCC(C(C)(C)C)C[C@H]1[C@H]1C(=O)N(c2ccccc2)C(=O)[C@@H]31 (some centres undefined)	99.6 µM

system: DLD-1 colon; assay: growth of human tumour cells (NCI), 48 h

Structure (SMILES)	TGI
CCOC(=O)C1=C(OC(OCC)C(CC)[Se]c2ccccc2)CCC1 (centres undefined)	45.4 µM
CCCc1cc(OC(=O)c2c(O)cc(OC)cc2CCC)cc(O)c1C(=O)O	> 100 µM
Cc1ccc(-c2cc(-c3ccccc3)c(C#N)c(=O)[nH]2)cc1	> 100 µM
O=[N+]([O-])c1cccc(Nc2nc(Cl)nc(Cl)n2)c1	> 100 µM
COC(=O)/C=C(\C)CCC1SC1(C)C (centres undefined)	> 100 µM
C=C1C2=C(CCCC2)C(=O)OC12CCCCC2	> 100 µM
Cc1ccc(C(=O)Oc2ccccc2)cc1N=NN(C)C	> 100 µM
CCOC(=O)CCC(NC(=O)c1ccc(NC(OC)c2nc3cc(C(F)(F)F)ccc3nc2-c2ccccc2)cc1)C(=O)OCC (centres undefined)	24.1 µM
CCCCOC/N=C(/N)NC#N	> 100 µM
COc1ccc2[nH]c3c(c2c1)[C@H]1CCC(C(C)(C)C)C[C@H]1[C@H]1C(=O)N(c2ccccc2)C(=O)[C@@H]31 (some centres undefined)	> 96.2 µM

system: LXFL 529 NSCLC; assay: growth of human tumour cells (NCI), 48 h

Structure (SMILES)	TGI
CCOC(=O)C1=C(OC(OCC)C(CC)[Se]c2ccccc2)CCC1 (centres undefined)	77 µM
CCCc1cc(OC(=O)c2c(O)cc(OC)cc2CCC)cc(O)c1C(=O)O	62.9 µM
Cc1ccc(-c2cc(-c3ccccc3)c(C#N)c(=O)[nH]2)cc1	> 100 µM
O=[N+]([O-])c1cccc(Nc2nc(Cl)nc(Cl)n2)c1	> 100 µM
COC(=O)/C=C(\C)CCC1SC1(C)C (centres undefined)	> 100 µM
C=C1C2=C(CCCC2)C(=O)OC12CCCCC2	> 100 µM
Cc1ccc(C(=O)Oc2ccccc2)cc1N=NN(C)C	> 100 µM
CCOC(=O)CCC(NC(=O)c1ccc(NC(OC)c2nc3cc(C(F)(F)F)ccc3nc2-c2ccccc2)cc1)C(=O)OCC (centres undefined)	20.3 µM
CCCCOC/N=C(/N)NC#N	> 100 µM
COc1ccc2[nH]c3c(c2c1)[C@H]1CCC(C(C)(C)C)C[C@H]1[C@H]1C(=O)N(c2ccccc2)C(=O)[C@@H]31 (some centres undefined)	> 100 µM
